The source of these data is PMC7204527, “In Vitro Assessment of the Interaction Potential of Ocimum basilicum (L.) Extracts on CYP2B6, 3A4, and Rifampicin Metabolism” (Frontiers in Pharmacology, 2020).

Each structure is given as a SMILES string. Several values for one entry are separate records, joined by “and”; a condition that tells them apart may be missing. Identical values can stand only once. Counter-ions that a name gives are not always drawn.

The subject of one data set is CYP2B6 mRNA. Description: CYP2B6 mRNA expression in HepG2 cells (RT-PCR, agarose gel). Format: cell-based, human. The conditions noted are these: HepG2, 10 μM, positive control, p < 0.001 vs cell control.
A further data set has as its target T1, CYP2B6 (Homo sapiens, UniProt P20813).
T1 sequence (P20813 1-491): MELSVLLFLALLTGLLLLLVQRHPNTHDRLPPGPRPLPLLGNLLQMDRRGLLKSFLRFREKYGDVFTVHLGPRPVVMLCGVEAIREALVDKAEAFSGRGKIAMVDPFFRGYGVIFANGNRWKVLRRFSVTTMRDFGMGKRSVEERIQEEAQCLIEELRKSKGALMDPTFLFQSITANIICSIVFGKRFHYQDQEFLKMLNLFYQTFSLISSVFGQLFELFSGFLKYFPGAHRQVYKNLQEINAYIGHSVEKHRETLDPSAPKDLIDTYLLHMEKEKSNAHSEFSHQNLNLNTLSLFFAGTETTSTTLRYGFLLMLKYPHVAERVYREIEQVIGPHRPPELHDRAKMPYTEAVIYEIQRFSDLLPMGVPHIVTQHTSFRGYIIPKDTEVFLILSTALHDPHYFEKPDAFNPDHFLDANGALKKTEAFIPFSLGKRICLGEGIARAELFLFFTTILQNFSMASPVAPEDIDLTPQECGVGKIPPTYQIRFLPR
Put plainly: Michaelis-Menten kinetics of efavirenz metabolism in HLM.

The next data set concerns CYP1A2. On the set-up: method as in Pan et al., 2014. The settings on record: ref Pan et al., 2014; cited from earlier work.
In data set [1] the test system is HIV-1 Reverse Transcriptase (RT)-associated RNase H. On the set-up: method as in Sonar et al., 2017. The settings on record: in vitro, ref Sonar et al., 2017, cited from earlier work.
For another data set, the system named is β-esterases. Description: Michaelis-Menten kinetics of rifampicin metabolism in HLM. Format: in vitro ADME, human. The settings on record: pooled HLM.
In another data set the test system is CYP3A enzymes. On the set-up: method as in Quintieri et al., 2008. The conditions noted are these: ref Quintieri et al., 2008; cited from earlier work.
Data set [2] addresses T2, rifampicin metabolism (β-esterases) (Homo sapiens, UniProt P22760).
T2 sequence (P22760 1-399): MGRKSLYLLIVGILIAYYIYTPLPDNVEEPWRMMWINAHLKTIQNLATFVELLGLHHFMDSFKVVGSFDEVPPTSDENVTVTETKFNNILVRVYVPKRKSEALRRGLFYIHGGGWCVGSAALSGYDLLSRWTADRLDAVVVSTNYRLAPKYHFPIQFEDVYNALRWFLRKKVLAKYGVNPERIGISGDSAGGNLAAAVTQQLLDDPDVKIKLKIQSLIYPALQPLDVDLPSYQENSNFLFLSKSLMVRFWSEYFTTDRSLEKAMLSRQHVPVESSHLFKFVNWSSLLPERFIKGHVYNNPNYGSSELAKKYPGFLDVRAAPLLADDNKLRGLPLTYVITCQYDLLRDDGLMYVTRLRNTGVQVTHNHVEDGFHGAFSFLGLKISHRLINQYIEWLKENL
Put plainly: HLM inhibition assay, rifampicin metabolism to 25-O-desacetyl rifampicin, two-point screening and IC50. Format: in vitro ADME. The settings on record: liver microsomes, pH 7.4, two-point screening, 49.79 μg/ml, read-out: rifampicin metabolism activity reduced by. The procedure: The inhibitory potential of each extract was assessed using two-point screening (20 and 200 μg/ml) and the activity potential was compared with the control incubates (without inhibitor). Neostigmine was used as the internal standard.
Briefly, a standard 200 μl incubation mixture containing the liver microsomes (0.5 mg/ml protein concentration for efavirenz, 0.25 mg/ml protein concentration rifampicin), efavirenz (15 μM)/rifampicin (48 μM) in 0.2M phosphate buffer (pH 7.4) and the basil herb extract (final concentration […] or 200 μg/ml, dissolved in <1% solvent) was incubated at 37°C for 30 min, in triplicates, with master reaction mix comprising of NADPH (final concentration 1.3 mM) and other reaction co-factors such as glucose-6-phosphate (final concentration 1.3 mM), glucose-6-phosphate dehydrogenase (1 U/ml) and magnesium chloride (final concentration 3.3 mM). About 200 μl of chilled ice-cold acetonitrile spiked with neostigmine (20 μM) was used to terminate each reaction. These samples were then centrifuged at 13,000 rpm for 10 min and the supernatants were subjected to HPLC analysis. The mobile phase comprised of water (A): acetonitrile (B) at a flow rate of 0.7 ml min^-1 for efavirenz samples and water (A): methanol (B) at a flow rate of 0.8 ml min^-1 for rifampicin samples. […] The percentage of remaining activity was expressed as in the equation below (equation 2.8.3.1): […]
(Liver microsomes are vesicles of endoplasmic reticulum, rich in cytochrome P450 enzymes.)

The target of data set [3] is T2, rifampicin metabolism (β-esterases). Put plainly: Time-dependent inhibition (TDI) IC50 shift assay in HLM, rifampicin metabolism. Format: in vitro ADME. The settings on record: human liver microsomes, probe rifampicin. The method, then:
The TDI fold-shift was calculated using the ratio of the IC50s of the normal assay IC50(-) to that of the pre-incubation assay IC50(+), with NADPH (equation 2.8.3.2).
Eq. (2.8.3.2) TDIfold-shift=normal assayIC50(−)/pre-incubation assayIC50(+)
Extracts with fold shifts ≥1.5 were classified positive for TDI ([Nomeir et al., 2004]).

Data set [4] relates to UDP glucuronosyltransferases. On the set-up: method as in Zhang et al., 2005. The conditions noted are these: different assay conditions, bilirubin as the substrate; ref Zhang et al., 2005; read-out: IC50 reported in a previous HLM study; cited from earlier work.

On to `C[C@@H]1C[C@H]2[C@@H]3CCC4=CC(=O)C=C[C@]4(C)[C@@]3(F)[C@@H](O)C[C@]2(C)[C@@]1(O)C(=O)CO` [Dexamethasone, dexamethasone], for which the “fold induction of CYP2B6 mRNA expression” value in the data set on CYP2B6 mRNA is recorded as “significant fold induction”.

In the case of `O=C1Nc2ccc(Cl)cc2[C@@](C#CC2CC2)(C(F)(F)F)O1` [EFV, efavirenz], the Km (commonly the substrate concentration at which the rate is half of its maximum) at CYP2B6 (human, pooled human liver microsomes) worked out at 15.1 µM. Further, on CYP2B6 (pooled HLM), the “CLint (Vmax/Km)” value was determined as 0.0240 μl/min/mg protein. Moreover, the Vmax at CYP2B6 (pooled HLM, formation of 8-hydroxy efavirenz) came to 0.3576 pmol/min/mg protein.

Consider `COc1ccc(-c2cc(=O)c3c(O)c(OC)c(OC)cc3o2)cc1O` [Eupatorin, Eupatorin (3′,5-Dihydroxy-4′,6,7-trimethoxyflavone)], for which the “inhibition of CYP1A2” value with CYP1A2 is given as “inhibits”.

With `CCCCCCCC/C=C\CCCCCCCCNC(=O)/C=C/c1ccc(O)c(O)c1` [N-oleylcaffeamide], the “inhibition of RT-associated activity of ribonuclease H and DNA polymerase” value in data set [1] is reported as “strongly inhibited”.

Regarding `CO[C@H]1/C=C/O[C@@]2(C)Oc3c(C)c(O)c4c(O)c(c(/C=N/N5CCN(C)CC5)c(O)c4c3C2=O)NC(=O)/C(C)=C\C=C\[C@H](C)[C@H](O)[C@@H](C)[C@@H](O)[C@@H](C)[C@H](OC(C)=O)[C@@H]1C` [RIF, rifampicin], the “CLint (Vmax/Km)” value in the data set with β-esterases is 0.0260 μl/min/mg protein. Also, the Vmax in the data set on β-esterases (formation of 25-O-desacetyl rifampicin) was 1.2330 pmol/min/mg protein; in the data set with β-esterases (formation of 25-O-desacetyl rifampicin, listed as RIFAMPICIN) it was 1.233 pmol/min/mg protein. The Km in the data set on β-esterases (formation of 25-O-desacetyl rifampicin, 0–150 μM) stood at 48.2 µM.

As to `COc1ccc(-c2cc(=O)c3c(O)c(OC)c(OC)cc3o2)cc1` [Salvigenin, Salvigenin (5-Hydroxy-6,7,4′-trimethoxyflavone)], in the data set on CYP3A enzymes, the “inhibition of CYP3A enzymes” value is reported as “moderate inhibitor”.

With `Cc1c(O)cccc1C(=O)N[C@@H](CSc1ccccc1)[C@H](O)CN1C[C@H]2CCCC[C@H]2C[C@H]1C(=O)NC(C)(C)C` [nelfinavir, nelfinavir mesylate hydrate], in data set [2], the inhibition at 0.5 h was determined as 30%. In addition, the IC50 (usually the midpoint of a concentration-inhibition curve) in data set [3] (HLM, 30 min pre-incubation with NADPH, rifampicin as substrate, read-out: TDI IC50 against rifampicin metabolism) was 6.39 µM and 3.63 µg/mL; in [4] it was 2.7 µM. Also, the IC50 shift in data set [3] (rifampicin pathway, fold shift ≥1.5 classified positive for TDI, read-out: IC50 shift-fold, co-incubation IC50(-) / pre-incubation IC50(+)) is more than 1.5.

As to `CCCCCCCCCCCCCCOC(=O)/C=C/c1ccc(O)c(OC)c1` [tetradecyl ferulate], in data set [1] (read-out: IC50, RNase H inhibition), the IC50 was 12.4 µM.
